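In this assay, cells in 96-well plates receive the compound at five concentrations for 48 hours. Endpoints are linearly interpolated between the surrounding concentrations. TGI: total growth inhibition.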
Legend:
Assay in all cases: NCI-60 cell line screen, 48 h
SF-539 CNS = system: SF-539 CNS
SNB-75 CNS = system: SNB-75 CNS
SF-295 CNS = system: SF-295 CNS
NCI-H23 lung = system: NCI-H23 lung
UACC-62 melanoma = system: UACC-62 melanoma
HCT-116 colon = system: HCT-116 colon
RPMI-8226 leukemia = system: RPMI-8226 leukemia
HCT-15 colon = system: HCT-15 colon
ACHN renal = system: ACHN renal
A549 NSCLC = system: A549 NSCLC
U251 CNS = system: U251 CNS
SNB-78 CNS = system: SNB-78 CNS
DLD-1 colon = system: DLD-1 colon
SK-OV-3 ovarian = system: SK-OV-3 ovarian
IGROV1 ovarian = system: IGROV1 ovarian
HL-60(TB) leukemia = system: HL-60(TB) leukemia
SW-620 colon = system: SW-620 colon
SF-268 CNS = system: SF-268 CNS
COLO 205 colon = system: COLO 205 colon
786-0 renal = system: 786-0 renal
M19-MEL melanoma = system: M19-MEL melanoma
SK-MEL-5 melanoma = system: SK-MEL-5 melanoma
HOP-18 NSCLC = system: HOP-18 NSCLC
NCI-H460 lung = system: NCI-H460 lung
OVCAR-8 ovarian = system: OVCAR-8 ovarian
CAKI-1 renal = system: CAKI-1 renal
TK-10 renal = system: TK-10 renal
SK-MEL-28 melanoma = system: SK-MEL-28 melanoma
NCI-H226 lung = system: NCI-H226 lung
OVCAR-4 ovarian = system: OVCAR-4 ovarian
EKVX NSCLC = system: EKVX NSCLC
MOLT-4 leukemia = system: MOLT-4 leukemia
LXFL 529 NSCLC = system: LXFL 529 NSCLC
OVCAR-5 ovarian = system: OVCAR-5 ovarian
MALME-3M melanoma = system: MALME-3M melanoma
HOP-62 NSCLC = system: HOP-62 NSCLC
SNB-19 CNS = system: SNB-19 CNS
KM20L2 colon = system: KM20L2 colon
HCC-2998 colon = system: HCC-2998 colon
SN12C renal = system: SN12C renal
DMS 114 small cell lung = system: DMS 114 small cell lung
DMS 273 small cell lung = system: DMS 273 small cell lung
OVCAR-3 ovarian = system: OVCAR-3 ovarian
HT29 colon = system: HT29 colon
HOP-92 NSCLC = system: HOP-92 NSCLC
CCRF-CEM leukemia = system: CCRF-CEM leukemia
K-562 leukemia = system: K-562 leukemia
UO-31 renal = system: UO-31 renal
UACC-257 melanoma = system: UACC-257 melanoma
KM12 colon = system: KM12 colon
M14 melanoma = system: M14 melanoma
A498 renal = system: A498 renal
XF 498 CNS = system: XF 498 CNS
NCI-H522 lung = system: NCI-H522 lung
RXF 393 renal = system: RXF 393 renal
LOX IMVI melanoma = system: LOX IMVI melanoma
SK-MEL-2 melanoma = system: SK-MEL-2 melanoma

CCc1ccccc1NC(=O)CCc1n[nH]c(=S)o1
TGI (SF-539 CNS): > 100 µM | TGI (SNB-75 CNS): > 100 µM | TGI (SF-295 CNS): > 100 µM | TGI (NCI-H23 lung): > 100 µM | TGI (UACC-62 melanoma): > 100 µM | TGI (HCT-116 colon): 42.5 µM | TGI (RPMI-8226 leukemia): > 100 µM | TGI (HCT-15 colon): 36.8 µM | TGI (ACHN renal): > 100 µM | TGI (A549 NSCLC): > 100 µM | TGI (U251 CNS): > 100 µM | TGI (SNB-78 CNS): > 100 µM | TGI (DLD-1 colon): > 100 µM | TGI (SK-OV-3 ovarian): > 100 µM | TGI (IGROV1 ovarian): > 100 µM | TGI (HL-60(TB) leukemia): > 100 µM | TGI (SW-620 colon): 44.1 µM | TGI (SF-268 CNS): > 100 µM | TGI (COLO 205 colon): > 100 µM | TGI (786-0 renal): > 100 µM | TGI (M19-MEL melanoma): > 100 µM | TGI (SK-MEL-5 melanoma): > 100 µM | TGI (HOP-18 NSCLC): > 100 µM | TGI (NCI-H460 lung): > 100 µM | TGI (OVCAR-8 ovarian): > 100 µM | TGI (CAKI-1 renal): > 100 µM | TGI (TK-10 renal): > 100 µM | TGI (SK-MEL-28 melanoma): > 100 µM | TGI (NCI-H226 lung): > 100 µM | TGI (OVCAR-4 ovarian): > 100 µM | TGI (EKVX NSCLC): > 100 µM | TGI (MOLT-4 leukemia): > 100 µM | TGI (LXFL 529 NSCLC): > 100 µM | TGI (OVCAR-5 ovarian): > 100 µM | TGI (MALME-3M melanoma): > 100 µM | TGI (HOP-62 NSCLC): > 100 µM | TGI (SNB-19 CNS): > 100 µM | TGI (KM20L2 colon): > 100 µM | TGI (HCC-2998 colon): > 100 µM | TGI (SN12C renal): > 100 µM | TGI (DMS 114 small cell lung): > 100 µM | TGI (DMS 273 small cell lung): > 100 µM | TGI (OVCAR-3 ovarian): > 100 µM | TGI (HT29 colon): > 100 µM | TGI (HOP-92 NSCLC): > 100 µM | TGI (CCRF-CEM leukemia): > 100 µM | TGI (K-562 leukemia): > 100 µM | TGI (UO-31 renal): > 100 µM | TGI (UACC-257 melanoma): > 100 µM | TGI (KM12 colon): > 100 µM | TGI (M14 melanoma): > 100 µM | TGI (A498 renal): > 100 µM

C[C@@H](CO)OCOCc1ccccc1
TGI (SF-539 CNS): > 100 µM | TGI (SNB-75 CNS): > 100 µM | TGI (SF-295 CNS): > 100 µM | TGI (NCI-H23 lung): > 100 µM | TGI (UACC-62 melanoma): > 100 µM | TGI (HCT-116 colon): > 100 µM | TGI (RPMI-8226 leukemia): > 100 µM | TGI (HCT-15 colon): > 100 µM | TGI (A549 NSCLC): > 100 µM | TGI (U251 CNS): > 100 µM | TGI (SNB-78 CNS): > 100 µM | TGI (DLD-1 colon): > 100 µM | TGI (SK-OV-3 ovarian): > 100 µM | TGI (XF 498 CNS): > 100 µM | TGI (IGROV1 ovarian): > 100 µM | TGI (HL-60(TB) leukemia): > 100 µM | TGI (SW-620 colon): > 100 µM | TGI (SF-268 CNS): > 100 µM | TGI (COLO 205 colon): > 100 µM | TGI (786-0 renal): > 100 µM | TGI (M19-MEL melanoma): > 100 µM | TGI (SK-MEL-5 melanoma): > 100 µM | TGI (NCI-H460 lung): > 100 µM | TGI (CAKI-1 renal): > 100 µM | TGI (NCI-H522 lung): > 100 µM | TGI (SK-MEL-28 melanoma): > 100 µM | TGI (OVCAR-4 ovarian): > 100 µM | TGI (RXF 393 renal): > 100 µM | TGI (MOLT-4 leukemia): > 100 µM | TGI (LXFL 529 NSCLC): > 100 µM | TGI (MALME-3M melanoma): > 100 µM | TGI (HOP-62 NSCLC): > 100 µM | TGI (SNB-19 CNS): > 100 µM | TGI (HCC-2998 colon): > 100 µM | TGI (SN12C renal): > 100 µM | TGI (DMS 114 small cell lung): > 100 µM | TGI (DMS 273 small cell lung): > 100 µM | TGI (OVCAR-3 ovarian): > 100 µM | TGI (HT29 colon): > 100 µM | TGI (LOX IMVI melanoma): > 100 µM | TGI (HOP-92 NSCLC): > 100 µM | TGI (CCRF-CEM leukemia): > 100 µM | TGI (K-562 leukemia): > 100 µM | TGI (UO-31 renal): > 100 µM | TGI (UACC-257 melanoma): > 100 µM | TGI (KM12 colon): > 100 µM | TGI (M14 melanoma): > 100 µM | TGI (SK-MEL-2 melanoma): > 100 µM | TGI (A498 renal): > 100 µM
